Source: PMC11852049, “Impact of Hydrophobic, Hydrophilic, and Mucus-Binding Motifs on the Therapeutic Potential of Ceftazidime Analogs for Pulmonary Administration” (Antibiotics, 2025)
Converted amounts (≈) assume the structure as drawn.

Assays:
[1] = Transepithelial transport assay (Papp), HBEC air–liquid interface cultures on Transwells; conditions: human, Papp (apparent permeability), mean ± standard deviation, apical to basal over 24 h, approx. 5 mg/mL apical
[2] = test system: Burkholderia pseudomallei; assay: microbe, parasite or virus in culture; type: cell-based; conditions: for MIC: Burkholderia pseudomallei, 24 h, read-out: MIC Bp; for MIC Bp: 24 h at 37 °C, cation-adjusted Mueller–Hinton II broth, mean of two replicates
[3] = test system: Staphylococcus aureus Newman; assay: microbe, parasite or virus in culture; type: cell-based; conditions: for MIC: Staphylococcus aureus, NEWMAN, 24 h, read-out: MIC Sa
Escherichia coli = assay: microbe, parasite or virus in culture; type: cell-based; conditions: 24 h, read-out: MIC Ec
Pseudomonas aeruginosa = assay: microbe, parasite or virus in culture; type: cell-based; conditions: for MIC: Pseudomonas aeruginosa, 24 h, read-out: MIC Pa
[4] = set-up: method as in PMID 29096171, PMID 7629560; conditions: delivered via injection; cited from earlier work
[5] = compound set 2, three donors (L8 excluded)

Row | Compound | Papp at 24 h [1, 5] [×10⁻⁶ cm/s] | MIC [2] [µg/mL] | MIC [3] [µg/mL] | MIC (Escherichia coli) [µg/mL] | MIC (Pseudomonas aeruginosa) [µg/mL] | penetration ratio (PELF-to-total plasma concentration) [4] | Papp at 24 h ([1]; compound set 1, three donors) [×10⁻⁶ cm/s] | MIC Bp [2] [µg/mL] | MIC Pa (Pseudomonas aeruginosa) [µg/mL] | MIC Sa [3] [µg/mL]
1 | COCCOCCOCCNC(=O)C(C)(C)O/N=C(/C(=O)N[C@@H]1C(=O)N2C(C(=O)[O-])=C(C[n+]3ccccc3)CS[C@H]12)c1csc(N)n1 [Compound 7] | 3.6 ± 1.1 | > 200 | 50 (≈ 72.3 µM) | 100 (≈ 145 µM) | > 200 |  |  |  |  | 
2 | CC(C)(O/N=C(/C(=O)N[C@@H]1C(=O)N2C(C(=O)[O-])=C(C[n+]3ccccc3)CS[C@H]12)c1csc(N)n1)C(=O)NCCCS(=O)(=O)c1ccccc1 [Compound 5] | 2.71 ± 0.93 | 150 (≈ 206 µM) | 13 (≈ 17.9 µM) | < 15 | 200 (≈ 275 µM) |  |  |  |  | 
3 | CC(C)(O/N=C(/C(=O)N[C@@H]1C(=O)N2C(C(=O)[O-])=C(C[n+]3ccccc3)CS[C@H]12)c1csc(N)n1)C(=O)NC(CCC(=O)O)C(=O)O (some centres unmarked) [Compound 13] | 2.79 ± 0.91 | 200 (≈ 296 µM) | 200 (≈ 296 µM) | < 15 | 200 (≈ 296 µM) |  |  |  |  | 
4 | CC(C)(O/N=C(/C(=O)N[C@@H]1C(=O)N2C(C(=O)[O-])=C(C[n+]3ccccc3)CS[C@H]12)c1csc(N)n1)C(=O)NCCCS(=O)(=O)c1ccc(B(O)O)cc1 [Compound 17] | 3.33 ± 0.36 | 200 (≈ 259 µM) | 13 (≈ 16.8 µM) | 50 (≈ 64.8 µM) | 200 (≈ 259 µM) |  |  |  |  | 
5 | CC(C)(O/N=C(\C(=O)N[C@@H]1C(=O)N2C(C(=O)[O-])=C(C[n+]3ccccc3)CS[C@H]12)c1csc(N)n1)C(=O)O [Ceftazidime pentahydrate, ceftazidime pentahydrate, reference compound] | 2.54 | 3 | 13 | 0.4 | 6 | 20–30% | 3.36 ± 0.18 |  |  | 
6 | CC(C)(O/N=C(/C(=O)N[C@@H]1C(=O)N2C(C(=O)[O-])=C(C[n+]3ccccc3)CS[C@H]12)c1csc(N)n1)C(=O)NCCNC(=O)c1ccc(B(O)O)cc1 [Compound 18] | 2.21 ± 0.45 | 50 (≈ 67.9 µM) | 25 (≈ 33.9 µM) |  | 50 (≈ 67.9 µM) |  |  | < 60 | < 60 | 
7 | CN1CCN(CCNC(=O)C(C)(C)O/N=C(/C(=O)N[C@@H]2C(=O)N3C(C(=O)[O-])=C(C[n+]4ccccc4)CS[C@H]23)c2csc(N)n2)CC1 [Compound 12] | 2.6 ± 0.94 | > 200 | > 200 | ≥ 100 | > 200 |  |  | ≥ 100 | ≥ 100 | ≥ 100
8 | CC(C)(O/N=C(/C(=O)N[C@@H]1C(=O)N2C(C(=O)[O-])=C(C[n+]3ccccc3)CS[C@H]12)c1csc(N)n1)C(=O)NCCc1ccccc1 [Compound 3] | 4.65 ± 0.86 | 200 (≈ 308 µM) | 3 (≈ 4.62 µM) | 100 (≈ 154 µM) | 200 (≈ 308 µM) |  |  |  |  | 
9 | CCN(CC)CCNC(=O)C(C)(C)O/N=C(/C(=O)N[C@@H]1C(=O)N2C(C(=O)[O-])=C(C[n+]3ccccc3)CS[C@H]12)c1csc(N)n1 [Compound 11] |  | 75 (≈ 116 µM) | 25 (≈ 38.8 µM) | 63 (≈ 97.7 µM) | 150 (≈ 233 µM) |  | 3.58 ± 0.5 |  |  | < 40
10 | CCCCNC(=O)C(C)(C)O/N=C(/C(=O)N[C@@H]1C(=O)N2C(C(=O)[O-])=C(C[n+]3ccccc3)CS[C@H]12)c1csc(N)n1 [Compound 1, n-butyl-ceftazidime] |  | 200 (≈ 332 µM) | 6 (≈ 9.97 µM) | 100 (≈ 166 µM) | 200 (≈ 332 µM) |  | 1.91 ± 0.45 |  |  | 
11 | CC(C)(O/N=C(/C(=O)N[C@@H]1C(=O)N2C(C(=O)[O-])=C(C[n+]3ccccc3)CS[C@H]12)c1csc(N)n1)C(=O)NC1C(O)O[C@H](CO)[C@@H](O)[C@@H]1O (some centres unmarked) [Compound 10] | 2.75 ± 0.68 | 38 (≈ 53.7 µM) | 150 (≈ 212 µM) | < 4 | 50 (≈ 70.6 µM) |  |  | < 60 | < 60 | 
12 | CC(C)(O/N=C(/C(=O)N[C@@H]1C(=O)N2C(C(=O)[O-])=C(C[n+]3ccccc3)CS[C@H]12)c1csc(N)n1)C(=O)NCCOCCOCCOCCOCCOCCNc1ccnc(N)n1 [Compound 15, PEG5-pyrimidin-2-amine-ceftazidime] |  | 200 (≈ 222 µM) | 50 (≈ 55.4 µM) | 38 (≈ 42.1 µM) | > 200 |  | 1.75 ± 0.06 |  |  | 
13 | COCCOCCOCCOCCOCCNC(=O)C(C)(C)O/N=C(/C(=O)N[C@@H]1C(=O)N2C(C(=O)[O-])=C(C[n+]3ccccc3)CS[C@H]12)c1csc(N)n1 [Compound 8] |  | > 200 | 100 (≈ 128 µM) | ≥ 100 | > 200 |  | 2.23 ± 0.22 | ≥ 100 | ≥ 100 | ≥ 100
14 | CC(C)(O/N=C(/C(=O)N[C@@H]1C(=O)N2C(C(=O)[O-])=C(C[n+]3ccccc3)CS[C@H]12)c1csc(N)n1)C(=O)NCCCCCCOCCCCc1ccccc1 [Compound 6] | 2.45 ± 0.21 | > 200 | 3 (≈ 3.86 µM) | 100 (≈ 129 µM) | 200 (≈ 257 µM) |  |  |  |  | 
15 | CC(C)(O/N=C(/C(=O)N[C@@H]1C(=O)N2C(C(=O)[O-])=C(C[n+]3ccccc3)CS[C@H]12)c1csc(N)n1)C(=O)NCCCSc1ccc(B(O)O)cc1 [Compound 16, 4-propylthiophenyl boronic acid-ceftazidime] | 4.9 ± 1.4 | 200 (≈ 270 µM) | 3 (≈ 4.06 µM) | 50 (≈ 67.6 µM) | > 200 |  |  |  |  | 
16 | CC(C)(O/N=C(/C(=O)N[C@@H]1C(=O)N2C(C(=O)[O-])=C(C[n+]3ccccc3)CS[C@H]12)c1csc(N)n1)C(=O)NCCNc1ccnc(N)n1 [Compound 14] | 2.03 ± 0.6 | > 200 | > 200 | ≥ 100 | 100 (≈ 147 µM) |  |  | ≥ 100 | ≥ 100 | ≥ 100
17 | COCCOCCOCCOCCOCCOCCOCCOCCNC(=O)C(C)(C)O/N=C(/C(=O)N[C@@H]1C(=O)N2C(C(=O)[O-])=C(C[n+]3ccccc3)CS[C@H]12)c1csc(N)n1 [Compound 9] |  | > 200 | 200 (≈ 219 µM) | ≥ 100 | > 200 |  | 1.86 ± 0.39 | ≥ 100 | ≥ 100 | ≥ 100
18 | CC(C)(O/N=C(/C(=O)N[C@@H]1C(=O)N2C(C(=O)[O-])=C(C[n+]3ccccc3)CS[C@H]12)c1csc(N)n1)C(=O)NCCc1cc(O)c(O)cc1Cl [Compound 4] | 2.94 ± 0.63 | 1.6 (≈ 2.23 µM) | 38 (≈ 53.1 µM) | < 15 | 19 (≈ 26.5 µM) |  |  | < 60 | < 60 | 
